Test results from patent US20180010188A1, “METHOD FOR DETECTING NONSENSE-MEDIATED RNA DECAY” (The Regents of the University of California, priority 2016, published 2018).

Columns and labels:
Xbp1 splicing = Xbp1 splicing (ER stress) by RT-PCR / Xbp1s level; assay type: cell-based, mouse
Description: We investigated another consequence of thapsigargin treatment, ER stress, for its possible association with NMD inhibition. Because thapsigargin-induced NMD inhibition occurred as early as 1 hour post-treatment, we examined cellular stress levels by measuring the splicing activity of X-box binding protein 1 (Xbp1). Xbp1 splicing rapidly responds to ER stress. As a part of the unfolded protein response (UPR) triggered by ER stress, the serine/threonine protein kinase/endoribonuclease inositol-requiring enzyme 1 (IRE1α) oligomerizes and activates its ribonuclease activity through trans-autophosphorylation (Rubio et al., 2011. J Cell Biol 193: 171-184; Samali et al., 2010. Int J Cell Biol 2010: 830307; van Schadewijk et al., 2012. Cell Stress Chaperones 17: 275-279; Hetz C. 2012. Nat Rev Mol Cell Biol 13: 89-102). Activated IRE1α excises a 26-nt intron of Xbp1 mRNA, resulting in a shorter isoform (Xbp1s) that encodes a potent transcriptional activator for the expression of chaperones. RT-PCR with primers flanking the 26-nt intron detected Xbp1 splicing at 1 hour after thapsigargin treatment (FIG. 3A). […] Since IRE1α is targeted by NMD (Karam et al., 2015. EMBO Rep 16: 599-609; Oren et al. 2014. EMBO Mol Med 6: 685-701), the Xbp1 intron excision could have been due to thapsigargin-induced NMD inhibition. […] Nevertheless, feedback between these two pathways may have occurred in the later phase (see below).
(§1) Neuro-2a (N2a) cells were maintained in N2a complete media consisting of L-glutamine-free Dulbecco's modified Eagle's medium (DMEM), 10% FBS and 1× GlutaMAX at 37° C. Thapsigargin (VWR, cat. no. 89161-410), ionomycin (Fisher Scientific, cat. no. AG-CN2-0416-M001) and ouabain octahydrate (Fisher Scientific, cat. no. 80055-364) were dissolved in DMSO and stored at −80° C. […]
Trizol (Life Technologies, cat. no. 15596-018) was directly added to the cells or mouse brain tissues to extract total RNA following the Trizol Reagent standard protocol. […] RNA concentrations were measured using a Nanodrop 2000c (Thermo Fisher). […]

Bip transcript = Bip transcript levels as reporter of ATF6α activity; assay type: cell-based, mouse
Source text: Perk knockdown attenuated thapsigargin-induced Xpb1s (FIG. 4E) probably due to the restoration of NMD activity and because NMD inhibits IRE1α to splice Xbp1 (Oren et al. 2014. EMBO Mol Med 6: 685-701; Karam et al., 2015. EMBO Rep 16: 599-609). […] The Xbp1s level in the thapsigargin-treated siPerk cells was still 6 to 8 fold higher than in DMSO-treated cells, indicative of potent IRE1a activity. We also examined Bip transcript levels as a reporter of ATF6α activity (FIG. 4F). […] In summary, in PERK-deficient cells, thapsigargin continued to activate IREα and ATF6α but no longer inhibited NMD.
as §1
Trizol (Life Technologies, cat. no. 15596-018) was directly added to the cells or mouse brain tissues to extract total RNA following the Trizol Reagent standard protocol. […] RNA concentrations were measured using a Nanodrop 2000c (Thermo Fisher). […] Relative expression (fold changes) was calculated using the ΔΔCt method. […]

SMILES	thapsigargin-induced Xbp1s (Xbp1 splicing; thapsigargin plus GSK2606414)	Bip transcripts (Bip transcript; thapsigargin plus GSK2606414)	time at which Xbp1 splicing was detected (Xbp1 splicing; 0.2 μM thapsigargin, N2a cells)	concentration at which Xbp1 intron excision occurred (Xbp1 splicing; N2a cells, 5 hours post-treatment)	Bip transcript levels (Bip transcript; thapsigargin treatment, maintained with siPerk)
Cn1cc(-c2ccc3c(c2)CCN3C(=O)Cc2cccc(C(F)(F)F)c2)c2c(N)ncnc21 [GSK2606414]	attenuating	did not down-regulate	–	–	–
C/C=C(/C)C(=O)O[C@H]1C(C)=C2[C@H]([C@@H]1OC(=O)CCCCCCC)[C@@](C)(OC(C)=O)C[C@H](OC(=O)CCC)[C@@]1(O)[C@H]2OC(=O)[C@@]1(C)O [thapsigargin]	–	–	1 h	0.01 µM	significantly boosted
